What was measured:
Type in all cases: in vivo
Barnyardgrass [1] = experiment: post-emergence herbicide test; settings: Echinochloa crus-galli, post-emergence, 0.25 lb/A; read-out: % plant inhibition
Outline: (§1)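 Each pan is moved to a spraying chamber when plants are two to three weeks old and sprayed by atomizer at 10 psig, delivering 1870 L/Ha containing about 0.4% by volume emulsifier. Greenhouse-grown from seed; percent inhibition scored.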

Bedstraw Catchweed [2] = experiment: post-emergence herbicide test; settings: Galium aparine, post-emergence, 0.25 lb/A; read-out: % plant inhibition
Outline: as §1

Soybean [3] = experiment: post-emergence herbicide test; settings: Glycine max, post-emergence, 0.25 lb/A; read-out: % plant inhibition
Outline: as §1

Wheat [4] = experiment: post-emergence herbicide test; settings: Triticum aestivum, post-emergence, 0.25 lb/A; read-out: % plant inhibition
Outline: as §1

Velvetleaf [5] = experiment: post-emergence herbicide test; settings: Abutilon theophrasti, post-emergence, 0.25 lb/A; read-out: % plant inhibition
Outline: as §1

Wild Oats [6] = experiment: post-emergence herbicide test; settings: Avena fatua, post-emergence, 0.25 lb/A; read-out: % plant inhibition
Outline: as §1

Rape [7] = experiment: post-emergence herbicide test; settings: post-emergence, 0.25 lb/A; read-out: % plant inhibition
Outline: as §1

Corn [8] = experiment: post-emergence herbicide test; settings: Zea mays, post-emergence, 0.25 lb/A; read-out: % plant inhibition
Outline: as §1

Morning Glory [9] = experiment: post-emergence herbicide test; settings: Ipomoea, post-emergence, 0.25 lb/A; read-out: % plant inhibition
Outline: as §1

Birdseye Speedwell [10] = experiment: post-emergence herbicide test; settings: post-emergence, 0.25 lb/A; read-out: % plant inhibition
Outline: as §1

Downy Brome [11] = experiment: post-emergence herbicide test; settings: Bromus tectorum, post-emergence, 0.25 lb/A; read-out: % plant inhibition
Outline: as §1

Cocklebur [12] = experiment: post-emergence herbicide test; settings: Xanthium strumarium, post-emergence, 0.25 lb/A; read-out: % plant inhibition
Outline: as §1

Common Chickweed [13] = experiment: post-emergence herbicide test; settings: post-emergence, 0.25 lb/A; read-out: % plant inhibition
Outline: as §1

Blackgrass [14] = experiment: post-emergence herbicide test; settings: Alopecurus myosuroides, post-emergence, 0.25 lb/A; read-out: % plant inhibition
Outline: as §1

Seedling Johnsongrass [15] = experiment: post-emergence herbicide test; settings: Sorghum halepense, post-emergence, 0.25 lb/A; read-out: % plant inhibition
Outline: as §1

Green Foxtail [16] = experiment: post-emergence herbicide test; settings: Setaria viridis, post-emergence, 0.25 lb/A; read-out: % plant inhibition
Outline: as §1

Giant Foxtail [17] = experiment: post-emergence herbicide test; settings: Setaria faberi, post-emergence, 0.25 lb/A; read-out: % plant inhibition
Outline: as §1

Barnyardgrass [18] = experiment: pre-emergence herbicide test; settings: Echinochloa crus-galli, pre-emergence, 0.25 lb/A; read-out: % plant inhibition
Outline: (§2)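 Steps: compact topsoil in pan; place seeds; level-fill with cover soil; add a known amount of compound before or after covering; keep pans in greenhouse, bottom-watering as needed; rate % inhibition at about 14 days.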

Bedstraw Catchweed [19] = experiment: pre-emergence herbicide test; settings: Galium aparine, pre-emergence, 0.25 lb/A; read-out: % plant inhibition
Outline: as §2

Soybean [20] = experiment: pre-emergence herbicide test; settings: Glycine max, pre-emergence, 0.25 lb/A; read-out: % plant inhibition
Outline: as §2

Wheat [21] = experiment: pre-emergence herbicide test; settings: Triticum aestivum, pre-emergence, 0.25 lb/A; read-out: % plant inhibition
Outline: as §2

Velvetleaf [22] = experiment: pre-emergence herbicide test; settings: Abutilon theophrasti, pre-emergence, 0.25 lb/A; read-out: % plant inhibition
Outline: as §2

Wild Oats [23] = experiment: pre-emergence herbicide test; settings: Avena fatua, pre-emergence, 0.25 lb/A; read-out: % plant inhibition
Outline: as §2

Rape [24] = experiment: pre-emergence herbicide test; settings: pre-emergence, 0.25 lb/A; read-out: % plant inhibition
Outline: as §2

Corn [25] = experiment: pre-emergence herbicide test; settings: Zea mays, pre-emergence, 0.25 lb/A; read-out: % plant inhibition
Outline: as §2

Morning Glory [26] = experiment: pre-emergence herbicide test; settings: Ipomoea, pre-emergence, 0.25 lb/A; read-out: % plant inhibition
Outline: as §2

Birdseye Speedwell [27] = experiment: pre-emergence herbicide test; settings: pre-emergence, 0.25 lb/A; read-out: % plant inhibition
Outline: as §2

Downy Brome [28] = experiment: pre-emergence herbicide test; settings: Bromus tectorum, pre-emergence, 0.25 lb/A; read-out: % plant inhibition
Outline: as §2

Cocklebur [29] = experiment: pre-emergence herbicide test; settings: Xanthium strumarium, pre-emergence, 0.25 lb/A; read-out: % plant inhibition
Outline: as §2

Common Chickweed [30] = experiment: pre-emergence herbicide test; settings: pre-emergence, 0.25 lb/A; read-out: % plant inhibition
Outline: as §2

Blackgrass [31] = experiment: pre-emergence herbicide test; settings: Alopecurus myosuroides, pre-emergence, 0.25 lb/A; read-out: % plant inhibition
Outline: as §2

Seedling Johnsongrass [32] = experiment: pre-emergence herbicide test; settings: Sorghum halepense, pre-emergence, 0.25 lb/A; read-out: % plant inhibition
Outline: as §2

Green Foxtail [33] = experiment: pre-emergence herbicide test; settings: Setaria viridis, pre-emergence; 0.25 lb/A; read-out: % plant inhibition
Outline: as §2

Giant Foxtail [34] = experiment: pre-emergence herbicide test; settings: Setaria faberi, pre-emergence, 0.25 lb/A; read-out: % plant inhibition
Outline: as §2

Cc1c(-c2cc(C(=O)OCc3ccco3)c(Cl)cc2F)nn(C)c1C(F)(F)F [Compound 57]
inhibition at 280.212 g/ha (Barnyardgrass [1]): 35% | inhibition at 280.212 g/ha (Bedstraw Catchweed [2]): 40% | inhibition at 280.212 g/ha (Soybean [3]): 17% | inhibition at 280.212 g/ha (Wheat [4]): 8% | inhibition at 280.212 g/ha (Velvetleaf [5]): 100% | inhibition at 280.212 g/ha (Wild Oats [6]): 25% | inhibition at 280.212 g/ha (Rape [7]): 15% | inhibition at 280.212 g/ha (Corn [8]): 3% | inhibition at 280.212 g/ha (Morning Glory [9]): 50% | inhibition at 280.212 g/ha (Birdseye Speedwell [10]): 100% | inhibition at 280.212 g/ha (Downy Brome [11]): 15% | inhibition at 280.212 g/ha (Cocklebur [12]): 85% | inhibition at 280.212 g/ha (Common Chickweed [13]): 55% | inhibition at 280.212 g/ha (Blackgrass [14]): 15% | inhibition at 280.212 g/ha (Seedling Johnsongrass [15]): 35% | inhibition at 280.212 g/ha (Green Foxtail [16]): 40% | inhibition at 280.212 g/ha (Giant Foxtail [17]): 15% | inhibition at 280.212 g/ha (Barnyardgrass [18]): 50% | inhibition at 280.212 g/ha (Bedstraw Catchweed [19]): 80% | inhibition at 280.212 g/ha (Soybean [20]): 0% | inhibition at 280.212 g/ha (Wheat [21]): 0% | inhibition at 280.212 g/ha (Velvetleaf [22]): 90% | inhibition at 280.212 g/ha (Wild Oats [23]): 5% | inhibition at 280.212 g/ha (Rape [24]): 0% | inhibition at 280.212 g/ha (Corn [25]): 0% | inhibition at 280.212 g/ha (Morning Glory [26]): 90% | inhibition at 280.212 g/ha (Birdseye Speedwell [27]): 60% | inhibition at 280.212 g/ha (Downy Brome [28]): 20% | inhibition at 280.212 g/ha (Cocklebur [29]): 10% | inhibition at 280.212 g/ha (Common Chickweed [30]): 20% | inhibition at 280.212 g/ha (Blackgrass [31]): 15% | inhibition at 280.212 g/ha (Seedling Johnsongrass [32]): 15% | inhibition at 280.212 g/ha (Green Foxtail [33]): 85% | inhibition at 280.212 g/ha (Giant Foxtail [34]): 10%

CCC(CC)COC(=O)c1cc(-c2nn(C)c(C(F)(F)F)c2C)c(F)cc1Cl [Compound 46]
inhibition at 280.212 g/ha (Barnyardgrass [1]): 50% | inhibition at 280.212 g/ha (Bedstraw Catchweed [2]): 100% | inhibition at 280.212 g/ha (Soybean [3]): 15% | inhibition at 280.212 g/ha (Wheat [4]): 15% | inhibition at 280.212 g/ha (Velvetleaf [5]): 98% | inhibition at 280.212 g/ha (Wild Oats [6]): 20% | inhibition at 280.212 g/ha (Rape [7]): 45% | inhibition at 280.212 g/ha (Corn [8]): 15% | inhibition at 280.212 g/ha (Morning Glory [9]): 70% | inhibition at 280.212 g/ha (Birdseye Speedwell [10]): 100% | inhibition at 280.212 g/ha (Downy Brome [11]): 15% | inhibition at 280.212 g/ha (Cocklebur [12]): 85% | inhibition at 280.212 g/ha (Common Chickweed [13]): 95% | inhibition at 280.212 g/ha (Blackgrass [14]): 20% | inhibition at 280.212 g/ha (Seedling Johnsongrass [15]): 25% | inhibition at 280.212 g/ha (Green Foxtail [16]): 70% | inhibition at 280.212 g/ha (Giant Foxtail [17]): 0% | inhibition at 280.212 g/ha (Barnyardgrass [18]): 0% | inhibition at 280.212 g/ha (Bedstraw Catchweed [19]): 75% | inhibition at 280.212 g/ha (Soybean [20]): 0% | inhibition at 280.212 g/ha (Wheat [21]): 0% | inhibition at 280.212 g/ha (Velvetleaf [22]): 80% | inhibition at 280.212 g/ha (Wild Oats [23]): 5% | inhibition at 280.212 g/ha (Rape [24]): 5% | inhibition at 280.212 g/ha (Corn [25]): 0% | inhibition at 280.212 g/ha (Morning Glory [26]): 20% | inhibition at 280.212 g/ha (Birdseye Speedwell [27]): 80% | inhibition at 280.212 g/ha (Downy Brome [28]): 15% | inhibition at 280.212 g/ha (Cocklebur [29]): 10% | inhibition at 280.212 g/ha (Common Chickweed [30]): 90% | inhibition at 280.212 g/ha (Blackgrass [31]): 10% | inhibition at 280.212 g/ha (Seedling Johnsongrass [32]): 75% | inhibition at 280.212 g/ha (Green Foxtail [33]): 80% | inhibition at 280.212 g/ha (Giant Foxtail [34]): 40%

Cc1c(-c2cc(C(=O)OCC(=O)OC(C)C)c(Cl)cc2F)nn(C)c1C(F)(F)F [Compound 23]
inhibition at 280.212 g/ha (Barnyardgrass [1]): 60% | inhibition at 280.212 g/ha (Bedstraw Catchweed [2]): 50% | inhibition at 280.212 g/ha (Soybean [3]): 30% | inhibition at 280.212 g/ha (Wheat [4]): 11% | inhibition at 280.212 g/ha (Velvetleaf [5]): 98% | inhibition at 280.212 g/ha (Wild Oats [6]): 20% | inhibition at 280.212 g/ha (Rape [7]): 10% | inhibition at 280.212 g/ha (Corn [8]): 7% | inhibition at 280.212 g/ha (Morning Glory [9]): 65% | inhibition at 280.212 g/ha (Birdseye Speedwell [10]): 75% | inhibition at 280.212 g/ha (Downy Brome [11]): 25% | inhibition at 280.212 g/ha (Cocklebur [12]): 90% | inhibition at 280.212 g/ha (Common Chickweed [13]): 75% | inhibition at 280.212 g/ha (Blackgrass [14]): 15% | inhibition at 280.212 g/ha (Seedling Johnsongrass [15]): 65% | inhibition at 280.212 g/ha (Green Foxtail [16]): 15% | inhibition at 280.212 g/ha (Giant Foxtail [17]): 20% | inhibition at 280.212 g/ha (Barnyardgrass [18]): 40% | inhibition at 280.212 g/ha (Bedstraw Catchweed [19]): 45% | inhibition at 280.212 g/ha (Soybean [20]): 5% | inhibition at 280.212 g/ha (Wheat [21]): 0% | inhibition at 280.212 g/ha (Velvetleaf [22]): 65% | inhibition at 280.212 g/ha (Wild Oats [23]): 10% | inhibition at 280.212 g/ha (Rape [24]): 75% | inhibition at 280.212 g/ha (Corn [25]): 0% | inhibition at 280.212 g/ha (Morning Glory [26]): 25% | inhibition at 280.212 g/ha (Birdseye Speedwell [27]): 100% | inhibition at 280.212 g/ha (Downy Brome [28]): 15% | inhibition at 280.212 g/ha (Cocklebur [29]): 10% | inhibition at 280.212 g/ha (Common Chickweed [30]): 100% | inhibition at 280.212 g/ha (Blackgrass [31]): 15% | inhibition at 280.212 g/ha (Seedling Johnsongrass [32]): 30% | inhibition at 280.212 g/ha (Green Foxtail [33]): 85% | inhibition at 280.212 g/ha (Giant Foxtail [34]): 65%

Source: patent US5672715A, “Herbicidal substituted 3-aryl-pyrazoles” (Monsanto Company, priority 1995, dated 1997)
